PMC7247319, “The mitochondria-targeted peptide SS-31 binds lipid bilayers and modulates surface electrostatics as a key component of its mechanism of action” (The Journal of Biological Chemistry, 2020)
Where a SMILES comes first, the peptide text is derived from it. [ ]: non-standard residue; d: D form. Dmt = Cc1cc(O)cc(C)c1C[C@H](N)C(=O)O

Tested on: LUVs with 20% TOCL
Test: CG-5N assay of Ca2+ accumulation at model membrane interface
Conditions: peptide titrated into LUVs with 20% TOCL prebound with Ca2+
Text: Figure 7. SS peptide effects on Ca^2+-membrane interactions and mitochondrial cation stress. A, profiles of surface potential decay (top) and ion distribution (bottom) based on GCS theory in the presence or absence of SS-31 (see supporting Results H for model description). B, effect of SS peptides on Ca^2+ accumulation at model membrane interfaces. […] C and D, effect of SS peptides on mitochondrial Ca^2+ uptake. C, time courses of TMRM or CG-5N emission in mitochondrial suspensions with ETH-129 in the absence (top) or presence (bottom) of SS-31 following the addition of NADH (black arrowheads) and CaCl2 (open arrowheads). See Fig. S18A for experimental details. […] Spectral deconvolution yielded the indicated components (see Fig. S19, A and B), which were used to quantify the area ratios of L2/iso in F (values shown are means ± S.D. (error bars) (n = 3). G, respirometry analysis. Mitochondria (1 mg ml^−1) were treated in the absence or presence of SS-31 (54.4 μM) or CaCl2 (1 mM) as indicated and measured for state 2 respiration (n = 10–12 each).
First, we measured the effects of SS peptides on the accumulation of Ca^2+ in the interfacial region of model membranes. […] We reasoned that the binding of Ca^2+ to the headgroup region of anionic lipid bilayers would reduce the bulk Ca^2+ detected by the CG-5N probe, providing a direct readout of Ca^2+ accumulation at the membrane interface. […]

Cc1cc(O)cc(C)c1C[C@H](NC(=O)[C@H](N)CCCNC(=N)N)C(=O)N[C@@H](CCCCN)C(=O)N[C@@H](Cc1ccccc1)C(N)=O [SS-31, D-Arg-2′6′-dimethyl-Tyr-Lys-Phe-NH2] (H-[dR][Dmt]KF-NH2) was tested, and the “release of Ca2+ from membrane interface (CG-5N response)” value was “released Ca^2+ from the membrane interface in a dose-dependent manner”.
